Converted amounts (≈) assume the structure as drawn. Like-named read-outs stand apart in the source and are kept apart here.
Columns and labels:
[1] = tested on: Mycobacterium tuberculosis clinical isolate 6341; assay type: cell-based
M. fortuitum B = settings: Mycolicibacterium fortuitum, read-out: MIC M.fortuitum
M. vaccae IMET 10 10670 = assay type: cell-based
[2] = tested on: Mycobacterium tuberculosis clinical isolate 6374; assay type: cell-based
[3] = tested on: Mycobacterium smegmatis SG 987; assay type: cell-based
[4] = tested on: Mycobacterium tuberculosis H37Rv and clinical isolates 6341 and 6374; assay: MIC and MBC, classical method, over several strains; assay type: cell-based; settings: for MBC: read-out: MBC (µg/mL) mean; for MIC: read-out: MIC (µg/mL) mean
[5] = tested on: Mycobacterium tuberculosis H37Rv; assay: Murine TB model (experimental hematogenously disseminated tuberculosis); assay type: in vivo, BALB/c line mice; settings: for Survival of animals: Groups 4/5, 25 mg/kg oral
[6] = Mycolicibacterium vaccae, IMET1010670; read-out: MIC M.vaccae
[7] = Mycolicibacterium smegmatis, SG987; read-out: MIC M. smegmatis
[8] = Mycolicibacterium vaccae, IMET1010670, read-out: MIC M.vaccae
[9] = Mycolicibacterium smegmatis, SG987, read-out: MIC M. smegmatis
[10] = 25 mg/kg orally, 42 days after inoculation of the culture medium

O=c1nc(N2CCC3(CC2)OCCO3)sc2c([N+](=O)[O-])cc(C(F)(F)F)cc12 [Compound 1, 2-(1,4-dioxa-8-azaspiro[4.5]dec-8-yl)-8-nitro-6-(trifluoromethyl)-1,3-benzothiazin-4-one]
MBC [1]: 2.34 µg/mL (≈ 5.61 µM)
MIC [1]: 1.56 µg/mL (≈ 3.74 µM)
MIC (M. fortuitum B): 12.5 ng/mL (≈ 0.0299 µM)
MIC (M. vaccae IMET 10 10670; [6]): 3.12 ng/mL (≈ 0.00748 µM)
MBC [2]: 2.34 µg/mL (≈ 5.61 µM)
MIC [2]: 1.56 µg/mL (≈ 3.74 µM)
MIC [3, 7]: 12.5 ng/mL (≈ 0.0299 µM)
MBC [4]: 1.75 µg/mL (≈ 4.19 µM)
MIC [4]: 1.17 µg/mL (≈ 2.8 µM)

O=c1nc(N2CCC3(CC2)OCCO3)sc2c([N+](=O)[O-])cc([N+](=O)[O-])cc12 [Compound 3, 2-(1,4-dioxa-8-azaspiro[4.5]dec-8-yl)-6,8-dinitro-1,3-benzothiazin-4-one]
MIC (M. fortuitum B): 6 ng/mL (≈ 0.0152 µM)
MIC (M. vaccae IMET 10 10670; [8]): 1.5 ng/mL (≈ 0.0038 µM)
MIC [3, 9]: 200 ng/mL (≈ 0.507 µM)

CC1COC2(CCN(c3nc(=O)c4cc([N+](=O)[O-])cc([N+](=O)[O-])c4s3)CC2)O1 (stereo not drawn) [Compound 4, 2-(2-methyl-1,4-dioxa-8-azaspiro[4.5]decyl)-6,8-dinitro-1,3-benzothiazin-4-one]
MIC (M. fortuitum B): 3 ng/mL (≈ 0.00735 µM)
MIC (M. vaccae IMET 10 10670; [8]): 3 ng/mL (≈ 0.00735 µM)
MIC [3, 9]: 200 ng/mL (≈ 0.49 µM)

CC1OC2(CCN(c3nc(=O)c4cc(C(F)(F)F)cc([N+](=O)[O-])c4s3)CC2)OC1C (stereo not drawn) [Compound 5, 2-(2,3-dimethyl-1,4-dioxa-8-azaspiro[4.5]dec-8-yl)-8-nitro-6-(trifluoromethyl)-1,3-benzothiazin-4-one]
MBC [1]: 0.39 µg/mL (≈ 0.876 µM)
MIC [1]: < 0.39 µg/mL
MIC (M. fortuitum B): 0.078 ng/mL (≈ 0.000175 µM)
MIC (M. vaccae IMET 10 10670; [6]): 0.078 ng/mL (≈ 0.000175 µM)
MBC [2]: 0.39 µg/mL (≈ 0.876 µM)
MIC [2]: < 0.39 µg/mL
MIC [3, 7]: 6.25 ng/mL (≈ 0.014 µM)
MBC [4]: 0.45 µg/mL (≈ 1.01 µM)
MIC [4]: 0.39 µg/mL (≈ 0.876 µM)

O=c1nc(N2CCC3(CC2)OCCCCO3)sc2c([N+](=O)[O-])cc([N+](=O)[O-])cc12 [Compound 7, 2-(7,12-dioxa-3-azaspiro[5.6]dodec-3-yl)-6,8-dinitro-1,3-benzothiazin-4-one]
MIC (M. fortuitum B): 3 ng/mL (≈ 0.0071 µM)
MIC (M. vaccae IMET 10 10670; [8]): 3 ng/mL (≈ 0.0071 µM)
MIC [3, 9]: 780 ng/mL (≈ 1.85 µM)

Cc1c([N+](=O)[O-])cc2c(=O)nc(N3CCC4(CC3)OCCO4)sc2c1[N+](=O)[O-] [Compound 8, 2-(1,4-dioxa-8-azaspiro[4.5]dec-8-yl)-7-methyl-6,8-dinitro-1,3-benzothiazin-4-one]
MIC (M. fortuitum B): 25 ng/mL (≈ 0.0612 µM)
MIC (M. vaccae IMET 10 10670; [8]): 25 ng/mL (≈ 0.0612 µM)
MIC [3, 9]: 400 ng/mL (≈ 0.979 µM)

N#Cc1cc([N+](=O)[O-])c2sc(N3CCC4(CC3)OCCO4)nc(=O)c2c1 [Compound 9, 2-(1,4-dioxa-8-azaspiro[4.5]dec-8-yl)-8-nitro-4-oxo-1,3-benzothiazine-6-carbonitrile]
MBC [1]: 1.17 µg/mL (≈ 3.13 µM)
MIC [1]: 0.78 µg/mL (≈ 2.08 µM)
MIC (M. fortuitum B): 25 ng/mL (≈ 0.0668 µM)
MIC (M. vaccae IMET 10 10670; [6]): 3.12 ng/mL (≈ 0.00833 µM)
MBC [2]: 0.78 µg/mL (≈ 2.08 µM)
MIC [2]: 0.58 µg/mL (≈ 1.55 µM)
MIC [3, 7]: 50 ng/mL (≈ 0.134 µM)
MBC [4]: 0.75 µg/mL (≈ 2 µM)
MIC [4]: 0.52 µg/mL (≈ 1.39 µM)

CC1COC2(CCN(c3nc(=O)c4cc(C#N)cc([N+](=O)[O-])c4s3)CC2)O1 (stereo not drawn) [Compound 10, 2-(2-methyl-1,4-dioxa-8-azaspiro[4.5]dec-8-yl)-8-nitro-4-oxo-1,3-benzothiazine-6-carbonitrile]
MBC [1]: 0.78 µg/mL (≈ 2.01 µM)
MIC [1]: 0.58 µg/mL (≈ 1.49 µM)
MIC (M. fortuitum B): 12.5 ng/mL (≈ 0.0322 µM)
MIC (M. vaccae IMET 10 10670; [6]): 3.12 ng/mL (≈ 0.00803 µM)
MBC [2]: 0.78 µg/mL (≈ 2.01 µM)
MIC [2]: 0.39 µg/mL (≈ 1 µM)
MIC [3, 7]: 25 ng/mL (≈ 0.0644 µM)
MBC [4]: 0.71 µg/mL (≈ 1.83 µM)
MIC [4]: 0.45 µg/mL (≈ 1.16 µM)

NNC(=O)c1ccncc1 [Isoniazid (INH), Isoniazid, reference compound]
Injury index ([5]; 25 mg/kg orally, daily 6 times per week, four-score scale, liver, spleen and lungs): 1,2
Efficacy index (%) ([5]; 25 mg/kg orally, 100% - injury index of group / injury index of control x 100): 70,5%
right lung Culture, without dilution CFU [5, 10]: ∼ 40 CFU
spleen Culture, without dilution CFU [5, 10]: ∼ 40 CFU
Survival of animals ([5]; day of treatment 1, of 10 animals): 10
Survival of animals ([5]; day of treatment 2, of 10 animals): 10
Survival of animals ([5]; day of treatment 3, of 10 animals): 10
Survival of animals ([5]; day of treatment 4, of 10 animals): 10
Survival of animals ([5]; day of treatment 5, of 10 animals): 10
Survival of animals ([5]; day of treatment 6, of 10 animals): 10
Survival of animals ([5]; day of treatment 7, of 10 animals): 10
Survival of animals ([5]; day of treatment 8, of 10 animals): 10
Survival of animals ([5]; day of treatment 9, of 10 animals): 10
Survival of animals ([5]; day of treatment 10, of 10 animals): 10
Survival of animals ([5]; day of treatment 11, of 10 animals): 10
Survival of animals ([5]; day of treatment 12, of 10 animals): 10
Survival of animals ([5]; day of treatment 13, of 10 animals): 10
Survival of animals ([5]; day of treatment 14, of 10 animals): 10
Survival of animals ([5]; day of treatment 15, of 10 animals): 10
Survival of animals ([5]; day of treatment 16, of 10 animals): 10
Survival of animals ([5]; day of treatment 17, of 10 animals): 10
Survival of animals ([5]; day of treatment 18, of 10 animals): 10
Survival of animals ([5]; day of treatment 19, of 10 animals): 10
Survival of animals ([5]; day of treatment 20, of 10 animals): 10
Survival of animals ([5]; day of treatment 21, of 10 animals): 10
Survival of animals ([5]; day of treatment 22, of 10 animals): 10
Survival of animals ([5]; day of treatment 23, of 10 animals): 10
Survival of animals ([5]; day of treatment 24, of 10 animals): 10
Survival of animals ([5]; day of treatment 25, of 10 animals): 10
Survival of animals ([5]; day of treatment 26, of 10 animals): 10
Survival of animals ([5]; day of treatment 27): 100%
MBC [1]: > 100 µg/mL
MIC [1]: > 100 µg/mL
MBC ([1]; read-out: MBC (µg/mL) mean): > 100 µg/mL
MIC ([1]; read-out: MIC (µg/mL) mean): > 100 µg/mL
MBC [2]: > 100 µg/mL
MIC [2]: > 100 µg/mL
MBC ([2]; read-out: MBC (µg/mL) mean): > 100 µg/mL
MIC ([2]; read-out: MIC (µg/mL) mean): > 100 µg/mL

— patent EP2181998B1, “New benzothiazinone derivative and its use as antibacterial agent” (priority 2006, dated 2007)
